In patent US20260216170A1, “TETRAHYDROISOQUINOLINE HETEROBIFUNCTIONAL BCL-XL DEGRADERS” (Treeline Biosciences, Inc., priority 2023, published 2026):

Target: T1, Human BCL-XL protein (N-terminal HiBiT tagged BCL-XL expressed in HT1080 cells) (Homo sapiens, UniProt Q07817)
T1 construct: expressed in transfected cells; host or cells: HT-1080 (ATCC CCL-121), stably transduced with lentivirus pLV-UBC-N-HiBiT-BCL-XL-PGK-puro and selected with puromycin
Assay: HiBiT Based Degradation Assay
Assay type: cell-based
Details: 24 hours incubation; for DC50: BCL-XL degradation, HT1080 cells expressing N-HiBiT-BCL-XL, normalized with DMSO control, geometric mean for multiple data points, read-out: EC50 (24 h); for Ymin (24 h): bottom of BCL-XL degradation curve (remaining HiBiT-BCL-XL signal vs DMSO control), HT1080 cells
Summary of the method: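 BCL-XL degradation was read as Nano-Glo HiBiT lytic luminescence relative to DMSO after a 24 h compound treatment of HT1080 cells carrying stably integrated N-HiBiT-BCL-XL. EC50 values come from four-parameter logistic curves, with the hook-curve minimum fixed as bottom, and are geometric means where tested repeatedly.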

T1 sequence (Q07817 whole entry): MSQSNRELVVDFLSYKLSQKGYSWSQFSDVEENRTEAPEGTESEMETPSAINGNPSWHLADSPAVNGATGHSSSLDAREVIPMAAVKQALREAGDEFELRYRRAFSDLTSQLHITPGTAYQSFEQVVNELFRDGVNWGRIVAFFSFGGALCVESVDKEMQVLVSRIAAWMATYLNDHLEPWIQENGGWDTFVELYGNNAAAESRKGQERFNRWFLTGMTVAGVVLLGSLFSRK

Row | SMILES | DC50 [nM] | Ymin (24 h)
1 | Cn1nc(C2CCC(=O)NC2=O)c2ccc(NC(=O)CN3CCC4(CC3)CC(Oc3cccc(-c5ccc(N6CCc7cccc(C(=O)Nc8nc9ccccc9s8)c7C6)nc5C(=O)O)c3C(F)(F)F)C4)cc21 (centres unmarked) [Compound 169, 6-(8-(benzo[d]thiazol-2-ylcarbamoyl)-3,4-dihydroisoquinolin-2(1H)-yl)-3-(3-((7-(2-((3-(2,6-dioxopiperidin-3-yl)-1-methyl-1H-indazol-6-yl)amino)-2-oxoethyl)-7-azaspiro[3.5]nonan-2-yl)oxy)-2-(trifluoromethyl)phenyl)picolinic acid] | < 10 | B (30% ≤ Ymin < 50%)
2 | Cc1cc2c(C3CCC(=O)NC3=O)nn(C)c2cc1NC(=O)CN1CCC2(CC1)CC(COc1ccc(-c3ccc(N4CCc5cccc(C(=O)Nc6nc7ccccc7s6)c5C4)nc3C(=O)O)c(C)c1)C2 (centres unmarked) [Compound 125] | 10 to 100 | B (30% ≤ Ymin < 50%)
3 | Cc1cc(OCCCC2CCN(CCNc3ccc4c(C5CCC(=O)NC5=O)nn(C)c4c3)CC2)ccc1-c1ccc(N2CCc3cccc(C(=O)Nc4nc5ccccc5s4)c3C2)nc1C(=O)O (centres unmarked) [Compound 179, 6-(8-(benzo[d]thiazol-2-ylcarbamoyl)-3,4-dihydroisoquinolin-2(1H)-yl)-3-(4-(3-(1-(2-((3-(2,6-dioxopiperidin-3-yl)-1-methyl-1H-indazol-6-yl)amino)ethyl)piperidin-4-yl)propoxy)-2-methylphenyl)picolinic acid] | < 10 | A (Ymin < 30%)
4 | COc1c(NC(=O)CN2CCC3(CC2)CC(COc2ccc(-c4ccc(N5CCc6cccc(C(=O)Nc7nc8ccccc8s7)c6C5)nc4C(=O)O)c(C(F)(F)F)c2)C3)ccc2c(C3CCC(=O)NC3=O)nn(C)c12 (centres unmarked) [Compound 144, 6-(8-(benzo[d]thiazol-2-ylcarbamoyl)-3,4-dihydroisoquinolin-2(1H)-yl)-3-(4-((7-(2-((3-(2,6-dioxopiperidin-3-yl)-7-methoxy-1-methyl-1H-indazol-6-yl)amino)-2-oxoethyl)-7-azaspiro[3.5]nonan-2-yl)methoxy)-2-(trifluoromethyl)phenyl)picolinic acid] | 10 to 100 | B (30% ≤ Ymin < 50%)
5 | COc1c(NC(=O)CN2CCC3(CC2)CC(COc2cccc(-c4ccc(N5CCc6cccc(C(=O)Nc7nc8ccccc8s7)c6C5)nc4C(=O)O)c2C(F)(F)F)C3)ccc2c(C3CCC(=O)NC3=O)nn(C)c12 (centres unmarked) [Compound 143, 6-(8-(benzo[d]thiazol-2-ylcarbamoyl)-3,4-dihydroisoquinolin-2(1H)-yl)-3-(3-((7-(2-((3-(2,6-dioxopiperidin-3-yl)-7-methoxy-1-methyl-1H-indazol-6-yl)amino)-2-oxoethyl)-7-azaspiro[3.5]nonan-2-yl)methoxy)-2-(trifluoromethyl)phenyl)picolinic acid] | 10 to 100 | B (30% ≤ Ymin < 50%)
6 | COc1c(NC(=O)CN2CCC3(CC2)CC(COc2cccc(-c4ccc(N5CCc6ccnc(C(=O)Nc7nc8ccccc8s7)c6C5)nc4C(=O)O)c2C(F)(F)F)C3)ccc2c(C3CCC(=O)NC3=O)nn(C)c12 (centres unmarked) [Compound 162, 6-[8-(1,3-benzothiazol-2-ylcarbamoyl)-3,4-dihydro-1H-2,7-naphthyridin-2-yl]-3-[3-[[7-[2-[[3-(2,6-dioxo-3-piperidyl)-7-methoxy-1-methyl-indazol-6-yl]amino]-2-oxo-ethyl]-7-azaspiro[3.5]nonan-2-yl]methoxy]-2-(trifluoromethyl)phenyl]pyridine-2-carboxylic acid] | 10 to 100 | B (30% ≤ Ymin < 50%)
7 | Cc1cc(OC2CC3(CCN(CC(=O)Nc4ccc5c(C6CCC(=O)NC6=O)nn(C)c5c4)CC3)C2)ccc1-c1ccc(N2CCc3ccnc(C(=O)Nc4nc5ccccc5s4)c3C2)nc1C(=O)O (centres unmarked) [Compound 167, 6-[8-(1,3-benzothiazol-2-ylcarbamoyl)-3,4-dihydro-1H-2,7-naphthyridin-2-yl]-3-[4-[[7-[2-[[3-(2,6-dioxo-3-piperidyl)-1-methyl-indazol-6-yl]amino]-2-oxo-ethyl]-7-azaspiro[3.5]nonan-2-yl]oxy]-2-methyl-phenyl]pyridine-2-carboxylic acid] | < 10 | A (Ymin < 30%)

Further lines, results first:

Row | DC50 [nM] | Ymin (24 h) | SMILES
8 | 10 to 100 | B (30% ≤ Ymin < 50%) | Cn1nc(C2CCC(=O)NC2=O)c2ccc(NC(=O)CN3CCC(CCCOc4cccc(-c5ccc(N6CCc7cccc(C(=O)Nc8nc9ccccc9s8)c7C6)nc5C(=O)O)c4C(F)(F)F)CC3)c(F)c21 (centres unmarked) [Compound 182]
9 | < 10 | A (Ymin < 30%) | Cc1cc(N(C)CCCC2CCN(CC(=O)Nc3ccc4c(C5CCC(=O)NC5=O)nn(C)c4c3)CC2)ccc1-c1ccc(N2CCc3cccc(C(=O)Nc4nc5ccccc5s4)c3C2)nc1C(=O)O (centres unmarked) [Compound 222, 6-(8-(benzo[d]thiazol-2-ylcarbamoyl)-3,4-dihydroisoquinolin-2(1H)-yl)-3-(4-((3-(1-(2-((3-(2,6-dioxopiperidin-3-yl)-1-methyl-1H-indazol-6-yl)amino)-2-oxoethyl)piperidin-4-yl)propyl)(methyl)amino)-2-methylphenyl)picolinic acid]
10 | 10 to 100 | B (30% ≤ Ymin < 50%) | Cc1c(OC[C@H]2C[C@H]2C2CCN(CC(=O)Nc3ccc4c(C5CCC(=O)NC5=O)nn(C)c4c3)CC2)cccc1-c1ccc(N2CCc3cccc(C(=O)Nc4nc5ccccc5s4)c3C2)nc1C(=O)O (single isomer, unassigned) [Compound 1001c]
